Key:
[1] = system: Hsp70; assay: Hsp70 induction in tumor and non-tumor cells (Western blot); assay type: cell-based, human; settings: 0.5 μM, 15 hours; MDA-MB-435 vs HMEC and HRE cells
Description: MDA-MB-435, human mammary epithelial (HMEC) […] (see Ross et al., “Systematic variation in gene expression patterns in human cancer cell lines,” Nat. Genet. (2000). 24(3):227-3.), and human renal epithelial (HRE) cells were seeded in 100 mm tissue culture plates at 1.5×10^6 cells/plate and incubated at 37° C. with 5% CO2 for several hours. […] After treatment the cells were lysized and used for Western blot analysis.
(§1) Samples were run on a SDS-PAGE gel and proteins were transferred onto a nitrocellulose membrane. Nitrocellulose was blocked with 5% skim milk in TBS with 0.5% Tween at room temperature for 1 hour and then probed with anti-Hsp70 (mouse IgG, sc-24, Santa Cruz) antibody. The nitrocellulose was then probed with secondary antibodies, HRP-conjugated goat anti-rabbit IgG and HRP-conjugated horse anti-mouse IgG (#7074, #7076, Cell Signaling). LumiGLO reagent, 20× Peroxide (#7003, Cell Signaling) was used to visualize gel (see FIG. 25).

[2] = system: HMEC and HRE cells; assay: Lysis of target cells by mouse splenocytes (MTS assay); assay type: cell-based, human; settings: non-cancerous HMEC and HRE cells; 0.1 or 0.5 μM, about 15 hours; splenocytes 10:1, 24 hours
Description: (§2) MDA-MB-435 cells were purchased from American Type culture collection. Human mammary epithelial (HMEC), human renal epithelial (HRE) cells and medium for maintaining the cells were obtained from Cambrex Bioproducts. Mouse splenocytes were isolated form CD1 nude mice (Jackson Lab). […] Mouse splenocytes were isolated from Nude mice and mixed with MDA-MB-435, HMEC and HRE cells at ratio of 10:1. The mixed cells were incubated at 37° C. for 24 hours in the tissue culture medium and MTS assay was performed to measure viability of the cells with an ELISA reader (DYNEX Technologies). Cytotoxicity (C) was calculated based on an equation below: C=[1-([…])]×100%

[3] = system: MDA-MB-435 cells; assay: as above; assay type: cell-based, human; settings: 0.1 or 0.5 μM, about 15 hours, splenocytes 10:1, 24 hours
Description: as §2

[4] = system: MDA-MB-435 cells; assay: Cell viability (Cell Counting Kit-8); assay type: cell-based, human; settings: Homo sapiens, MDA-MB-435; 500 nM, 72 hours post-drug treatment; read-out: reduction of cell viability
Description: The cells were further cultured at 37° C. for 72 hours and cell viability was measured with Cell Counting Kit-8 (Dojindo Laboratories, Cat# CK04).

[5] = system: Hsp70; assay: Hsp70 RNA induction, quantitative PCR, Hs294T cells; assay type: cell-based, human; settings: 100 nM
Description: […] 500 ng of RNA from each sample was used for cDNA synthesis using iScript cDNA Synthesis Kit (Biorad, Cat# 170-8891). 1 uL of cDNA mixture was used with the iQ SYBR Green Supermix (Biorad, Cat# 170-8882) to perform quantitative PCR in an iCycler machine (Biorad) using standard protocols. QPCR for each sample/time point was performed in duplicate. The following primers for inducible human Hsp70 and gapdh were used:
Ct values were obtained from the iCycler program and used in an equation (2^−ΔΔCT) for determining the amount of target relative to gapdh expression. This compares the relative expression of Hsp70 to the corresponding levels of gapdh in each sample. Duplicate wells were averaged and graphed with their corresponding standard deviation.
Activation of HSF-1 by oxidative stress has been reported in the literature to require p38 kinase signaling in some cell lines.

[6] = system: p38 kinase; assay: p38 phosphorylation, Western blot, MDA-MB-435 cells; assay type: cell-based, human; settings: 10, 50, 100, 500 or 1000 nM, 4 hours
Description: After treatment the cells were lysized and used for Western blot analysis.
as §1, with “membrane by a semi-dry transfer.” for “membrane.”, “anti-phospho-p38 (Cell Signaling, #9216)” for “anti-Hsp70 (mouse IgG, sc-24, Santa Cruz)”, “35).” for “25).”

[7] = system: human breast tumor MDA-MB-435; settings: Paclitaxel 5 mg/kg + Compound 1 25 or 50 mg/kg, IV, 3 times a week for 3 weeks, nude mice
Description: The in vivo anti-cancer enhancing effect of novel compounds was assessed in tumor bearing mice using the tumor growth inhibition assay. Tumor cells were implanted by injection of a tumor cell suspension subcutaneously in the flank of a mouse. […] Tumors were measured two times a week. During the course of this assay, animals were monitored daily for signs of toxicity including body weight loss.

[8] = system: Hsp70; assay: Phase I trial: plasma Hsp70 (sandwich ELISA); assay type: in vivo, human; settings: co-administered with paclitaxel
Description: Plasma Hsp70 was measured by a sandwich ELISA kit (Stressgen Bioreagents Victoria, British Columbia, CANADA) according to a modified protocol in house. In brief, Hsp70 in plasma specimens and serial concentrations of Hsp70 standard were captured onto 96-well plate on which anti-Hsp70 antibody was coated. Then captured Hsp70 was detected with a biotinylated anti-Hsp70 antibody followed by incubation with europium-conjugated streptavidin. After each incubation, unbound materials were removed by washing. Finally, antibody-Hsp70 complex was measured by time resolved fluorometry of europium. Concentration of Hsp70 was calculated from a standard curve.

Q: For `CN(NC(=O)CC(=O)NN(C)C(=S)c1ccccc1)C(=S)c1ccccc1` [Compound 1], which “induction of Hsp70” value [1] is on record?
A: preferentially induces Hsp70 in MDA-MB-435 tumor cells compared to non-tumor HMEC, and HRE cells

Q: What about the “increase in lysis compared to cells treated with DMSO alone” value [2] of the same compound?
A: only slightly increased

Q: And the “increase in lysis compared to cells treated with DMSO alone” value [3]?
A: about 15%

Q: What about the cytotoxicity at 0.5 µM [4] of the same compound?
A: ~90%

Q: What about the “Hsp70 RNA expression induction” value ([5]; 3 hours) of the same compound?
A: 3.9 fold

Q: And the “Hsp70 RNA expression induction” value ([5]; 6 hours)?
A: 8.3 fold

Q: What about the “phosphorylation and activation of p38 kinase” value [6] of the same compound?
A: induces the phosphorylation and activation of p38 kinase in a dose dependent manner

Q: And the “anti-tumor activity (tumor volume)” value [7]?
A: significantly enhanced anti-tumor activity of paclitaxel

Q: And the “induction of Hsp70 protein in plasma” value [8]?
A: dose dependent

From patent US20090093538A1, “Method for treating cancer” (priority 2007, published 2009)
